Source: patent EP3189850A1, “LIVER TARGETING OF CYCLIC PRES-DERIVED PEPTIDES OF HBV” (Ruprecht-Karls-Universität Heidelberg, priority 2015, dated 2017)
Bridge positions count the residues as written; N and C are the ends. Square brackets hold non-standard residues; d marks the D form. Ends that are not written are not given here. * marks the point of attachment. Myristoyl = CCCCCCCCCCCCCC(=O)*

Legend:
[1] = Biodistribution and γ-camera imaging of the 125I-labeled peptide (Figure 4); assay type: in vivo; details: γ-camera / biodistribution in NMRI mice
NTCP = biological target: T1, NTCP (Mus musculus, UniProt O08705); experiment: Scintigraphic imaging (125I) and MicroPET (68Ga) of labelled peptides with and without excess of Myrcludex B (Figure 3); assay type: in vivo; details: healthy mice; labelled peptide with and without excess of Myrcludex B; 20 and 120 min p.i.
T1 construct: from tissue; host or cells: liver of healthy mice, in vivo imaging
T1 sequence (O08705 1-362): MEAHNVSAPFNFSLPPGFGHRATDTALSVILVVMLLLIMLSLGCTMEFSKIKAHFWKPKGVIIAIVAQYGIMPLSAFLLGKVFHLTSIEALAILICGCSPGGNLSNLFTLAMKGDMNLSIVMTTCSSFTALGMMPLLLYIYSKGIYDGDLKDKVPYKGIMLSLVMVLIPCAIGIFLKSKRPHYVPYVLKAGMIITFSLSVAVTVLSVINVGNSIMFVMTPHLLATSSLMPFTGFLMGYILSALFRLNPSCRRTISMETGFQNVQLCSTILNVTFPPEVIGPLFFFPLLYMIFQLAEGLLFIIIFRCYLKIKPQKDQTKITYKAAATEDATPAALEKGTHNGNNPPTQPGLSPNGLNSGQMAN
Description: Ca. 1 mL of [^68Ga]Ga^3+ eluate (ca. 600-800 MBq) was added to a mixture of 20 µL of a 1mM solution of compound xy in DMSO and 10 µL of saturated solution of ascorbic acid in water. The pH of the resulting mixture was adjusted to 3.5-4.0 by careful addition of a 2.5 M sodium acetate solution in water. Complexation was achieved by heating to over 95°C for 5-10 minutes under constant stirring. The product was isolated by solid phase extraction with ethanol followed by evaporation. The residue was taken up in 1% bovine serum albumin solution and an appropriate amount (ca. 20-50 MBq) was used for the individual experiment in a volume not exceeding 100 µl. Mice were anesthetized with 1% sevoflurane (Abbott, Wiesbaden, Germany) and images were recorded using an Inveon small animal positron emission tomographic (PET) scanner (Siemens, Knoxville, TN) up to 60 minutes postinjection.

Substance	elimination via the intestine (time) [1] [h]	liver accumulation [1]	accumulation in the liver (NTCP)
myr-cyclo-intra[NP^*LGFFPDy]	≤ 2	accumulates rapidly in the liver	
myr-cyclo[CNPLGFFPDC]y (Myristoyl-CNPLGFFPDC[dY]; disulfide 1-10; also: 125I-labelled) [cyclo[9-16]myr, myristoylated Cys-HBVpreS9-16-Cys-D-Tyr cyclized via disulfide bridge of the two cysteines]			NTCP specific accumulation in the liver
